# Results reported in patent US4031235A, “Insecticidal substituted acetate compounds” (Sumitomo Chemical Company, Limited, priority 1972, dated 1977).
# System: adult mosquitoes (Culex pipiens)
# Assay: Knock-down of adult mosquitoes by 0.2% oil preparation (Experimental Example 4)
# Type: in vivo
# Conditions: 0.2% oil preparation, 0.7 ml, 1.5 Kg/cm^2, (70 Cm)^3 glass box, read-out: mosquitoes knocked down
# Procedure: (§1) 0.2% oil preparation was prepared from each of the compounds (1), (2), (8), (14), (22), (25), (26), (27), (51), (62), (73), (82), (86), (88), to (90), (92), (94), (96), (111), (119), (121), (165), (175), (180), (184), (185), (195), (200), (201), and (208) and allethrin as a control using deodorized kerosene.
row,SMILES,pest or weed control at 0.2 %
1,"CCC(C(=O)OC(C#N)c1cccc(Oc2ccccc2)c1)c1ccccc1 (stereo not drawn) [compound 14, 3'-Phenoxy-α'-cyanobenzyl-α-ethylphenylacetate]",> 80%
2,"CCC(C(=O)OCc1cccc(Oc2ccccc2)c1)c1ccc(OC(C)=O)cc1 (stereo not drawn) [compound 25, 3'-Phenoxybenzyl-α-ethyl-4-acetoxyphenylacetate]",> 80%
3,"CCC(C(=O)OCc1coc(Cc2ccccc2)c1)c1ccc([S+](C)[O-])cc1 (stereo not drawn) [compound 26, 5'-Benzyl-3'-furylmethyl-α-ethyl-4-methylsulfoxyphenylacetate]",> 80%
4,"CCC(C(=O)OCN1C(=O)C2=C(CCCC2)C1=O)c1c(C)cc(C)cc1C (stereo not drawn) [compound 27, 3',4',5',6'-Tetrahydrophthalimidomethyl-2-ethyl-2,4,6-trimethylphenylacetate]",> 80%
5,"COc1ccc(C(C(=O)OCN2C(=O)C3=C(CCCC3)C2=O)C(C)C)cc1 (stereo not drawn) [compound 73, 3',4',5',6'-Tetrahydrophthalimidomethyl-α-isopropyl-p-methoxyphenylacetate]",> 80%
6,"COc1ccc(C(C(=O)OCc2ccc(Cc3ccccc3)s2)C(C)C)cc1 (stereo not drawn) [compound 86, 5'-Benzyl-2'-thenylmethyl-α-isopropyl-4-methoxyphenylacetate]",> 80%
7,"COc1ccc(C(C(=O)OCc2cc3c(o2)CCCC3)C(C)C)cc1 (stereo not drawn) [compound 88, 4',5'-Tetramethylenefurfuryl-α-isopropyl-4-methoxyphenylacetate]",> 80%
8,"C=C(C)C(C(=O)OCN1C(=O)C2=C(CCCC2)C1=O)c1ccc(OC)cc1 (stereo not drawn) [compound 90, 3',4',5',6'-Tetrahydrophthalimidomethyl-α-isopropenyl-4-methoxyphenylacetate]",> 80%
9,"C=C(C)C(C(=O)OCc1cccc(Cc2ccccc2)c1)c1ccc(OC)cc1 (stereo not drawn) [compound 92, 3'-Benzylbenzyl-α-isopropenyl-4-methoxyphenylacetate]",> 80%
10,"C#CCc1ccc(C(C#C)OC(=O)C(CC)c2ccc(OC)cc2)o1 (stereo not drawn) [compound 94, 5'-Propargyl-α'-ethynylfurfuryl-α-ethyl-4-methoxyphenylacetate]",> 80%
11,"C=C(C)C(C(=O)OCc1cccc(Oc2ccccc2)c1)c1ccc(OC)cc1C (stereo not drawn) [compound 96, 3'-Phenoxybenzyl-α-isopropenyl-2-methyl-4-methoxyphenylacetate]",> 80%
12,CCC(C(=O)OCc1coc(Cc2ccco2)c1)c1ccc(Br)cc1 (stereo not drawn) [compound 175],> 80%

# Same assay, conditions: read-out: mosquitoes knocked down
row,SMILES,pest or weed control at 0.2 %
1,"C=CCC1=C(C)C(OC(=O)C2C(C=C(C)C)C2(C)C)CC1=O (stereo not drawn) [allethrin, reference compound]",> 80%

# System: oriental house flies
# Assay: Activity on knock-down against oriental house flies (Experimental Example 5)
# Type: in vivo
# Conditions: 0.2% oil preparation, 0.7 ml, 1.5 Kg/cm^2, (70 cm)^3 glass box
# Procedure: as §1
# 20 oriental house flies per group were released in a (70 cm)^3 volume glass box and sprayed with each of the oil preparations prepared in Experimental Example 4 from the compounds of Table 3 below and allethrin in an amount of 0.7 ml under a pressure of 1.5 Kg/cm^2.
row,SMILES,KT50 (50% knock-down time)
1,"C=CCC1=C(C)C(OC(=O)C2C(C=C(C)C)C2(C)C)CC1=O (stereo not drawn) [allethrin, reference compound]",186 s
2,"COc1ccc(C(C(=O)OCc2cc3c(o2)CCCC3)C(C)C)cc1 (stereo not drawn) [compound 88, 4',5'-Tetramethylenefurfuryl-α-isopropyl-4-methoxyphenylacetate]",147 s
3,"COc1ccc(C(C(=O)OCc2cccc(Cc3ccccc3)c2)C(C)C)cc1 (stereo not drawn) [compound 89, 3'-Benzylbenzyl-α-isopropyl-4-methoxyphenylacetate]",155 s
4,"C=C(C)C(C(=O)OCc1cccc(Oc2ccccc2)c1)c1ccc(OC)cc1C (stereo not drawn) [compound 96, 3'-Phenoxybenzyl-α-isopropenyl-2-methyl-4-methoxyphenylacetate]",92 s
5,CCC(C(=O)OCc1coc(Cc2ccco2)c1)c1ccc(Br)cc1 (stereo not drawn) [compound 175],152 s

# System: Larvae of Mosquito (Culex pipiens)
# Assay: Insecticidal activity on larvae of mosquito (Experimental Example 2)
# Type: in vivo
# Conditions: 24 h, read-out: LC50 (50% lethal concentration)
# Procedure: An emulsifiable concentrate was prepared by blending each of the compounds (1) to (300) of the present invention, xylol and Sorpol SM-200 (trade name; manufactured by Toho Chemical Co., Ltd.) in a proportion of 25%, 50% and 25% (by weight), respectively. 20 to 25 day-old rice plants after seeding were grown in pots and sprayed with each 300-fold dilute solution of the emulsifiable concentrates thus prepared and a 300-fold dilute solution of carbaryl 30% wettable powder diluted with water as a control commercial agent in an amount of 10 ml/pot in each case and then the pots were covered by a cylindrical metal net. 15 small brown planthoppers (Delphacodes striatella Fallen) per group were released in each of the pots treated with carbaryl wettable powder, and compound (1) to (21) and (102) to (110), while 15 green rice leafhopper (Nephotettix bipuntatus cincticeps Uhler) per group were released in each of the pots treated with the carbaryl wettable powder and compounds (22) to (101) and (111) to (300).
# Of the emulsifiable concentrates prepared in Experimental Example 1, each of those prepared from the compounds of Table 1 below was diluted with water to each of test concentrations and a 200 ml portion thereof was added to a 300 ml volume beaker. 30 larvae of mosquito per group were released in each of the beaker and allowed to stand for 1 day. Survival was observed and a LC50 (50% lethal concentration) was determined by calculating a percent killing in each case. As a control, lindane emulsifiable concentrate was used.
row,SMILES,LC50
1,"Cl[C@H]1[C@H](Cl)[C@@H](Cl)[C@@H](Cl)[C@H](Cl)[C@H]1Cl [Lindane, lindane, reference compound]",220 ng/mL
2,"C#CCc1ccc(COC(=O)C(CC)c2ccccc2)cc1 (stereo not drawn) [compound 10, 4'-Propargylbenzyl-α-ethylphenylacetate]",3 ng/mL
3,"CCC(C(=O)OC(C#N)c1cccc(Oc2ccccc2)c1)c1ccccc1 (stereo not drawn) [compound 14, 3'-Phenoxy-α'-cyanobenzyl-α-ethylphenylacetate]",2.6 ng/mL
4,"C=CCC1=C(C)C(OC(=O)C(CC)c2ccco2)CC1=O (stereo not drawn) [compound 16, 2'-Allyl-3'-methyl-2'-cyclopentene-1'-one-4""-yl-α-ethyl-2-furylacetate]",1.4 ng/mL
5,"CCC(C(=O)OCc1coc(Cc2ccccc2)c1)c1ccc(C)cc1 (stereo not drawn) [compound 102, 5'-Benzyl-3'-furylmethyl-α-ethyl-4-methylphenylacetate]",9.5 ng/mL
6,"Cc1ccc(C(C(=O)OCc2coc(Cc3ccccc3)c2)C(C)C)cc1 (stereo not drawn) [compound 103, 5'-Benzyl-3'-furylmethyl-α-isopropyl-4-methylphenylacetate]",9.2 ng/mL
7,"CCC(C(=O)OCc1coc(Cc2ccccc2)c1)c1cccc(C)c1 (stereo not drawn) [compound 104, 5'-Benzyl-3'-furylmethyl-α-ethyl-3-methylphenylacetate]",12 ng/mL
8,"Cc1cccc(C(C(=O)OCc2coc(Cc3ccccc3)c2)C(C)C)c1 (stereo not drawn) [compound 105, 5'-Benzyl-3'-furylmethyl-α-isopropyl-3-methylphenylacetate]",10.5 ng/mL
9,"CCC(C(=O)OCc1coc(Cc2ccccc2)c1)c1ccccc1C (stereo not drawn) [compound 110, 5'-Benzyl-3'-furylmethyl-α-ethyl-2-methylphenylacetate]",12.5 ng/mL
10,C=C(C)C(C(=O)OCc1csc(Cc2ccccc2)c1)c1ccc(C)cc1 (stereo not drawn) [compound 112],4.6 ng/mL
11,"C=C(C)C(C(=O)OCc1coc(Cc2ccco2)c1)c1ccc(C)cc1 (stereo not drawn) [compound 113, 5'-Furfuryl-3'-furylmethyl-α-isopropenyl-4-methylphenylacetate]",5.3 ng/mL
12,"C=C(C)C(C(=O)OCc1coc(Oc2ccccc2)c1)c1ccc(C)cc1 (stereo not drawn) [compound 115, 5'-Phenoxy-3'-furylmethyl-α-isopropenyl-4-methyl phenylacetate]",5 ng/mL
13,"C=C(C)C(C(=O)OCc1cccc(Oc2ccccc2)c1)c1cccc(Cl)c1 (stereo not drawn) [compound 120, 3'-Phenoxybenzyl-α-isopropenyl-3-chlorophenylacetate]",4 ng/mL
14,"C=C(C)C(C(=O)OCc1cccc(Oc2ccccc2)c1)c1ccc(CC)cc1 (stereo not drawn) [compound 126, 3'-Phenoxybenzyl-α-isopropenyl-4-ethylphenylacetate]",5.6 ng/mL
15,"C=C(C)C(C(=O)OCc1coc(Cc2ccccc2)c1)c1ccc(C)cc1 (stereo not drawn) [compound 128, 5'-Benzyl-3'-furylmethyl-α-isopropenyl-4-methylphenylacetate]",4.7 ng/mL
16,CCC(C(=O)OCc1cccc(Oc2ccccc2)c1)c1ccc(Cl)cc1 (stereo not drawn) [compound 177],7.4 ng/mL
17,Cc1ccc(C(C)C(=O)OCc2coc(Cc3ccccc3)c2)cc1 (stereo not drawn) [compound 181],82 ng/mL
18,Cc1ccc(C(C)C(=O)OCc2cccc(Oc3ccccc3)c2)cc1 (stereo not drawn) [compound 183],88.5 ng/mL
19,CC(C)C(C(=O)OCc1coc(Cc2ccccc2)c1)c1cccc(Cl)c1 (stereo not drawn) [compound 204],7.5 ng/mL
20,CC(C)C(C(=O)OCc1cccc(Oc2ccccc2)c1)c1ccc(F)cc1 (stereo not drawn) [compound 210],3.5 ng/mL
21,CC(C)C(C(=O)OCc1coc(Cc2ccccc2)c1)c1ccc(Br)cc1 (stereo not drawn) [compound 212],3.7 ng/mL
22,CCc1ccc(C(C(=O)OCc2coc(Cc3ccccc3)c2)C(C)C)cc1 (stereo not drawn) [compound 214],12.7 ng/mL
23,CCc1ccc(C(C(=O)OCc2cccc(Oc3ccccc3)c2)C(C)C)cc1 (stereo not drawn) [compound 215],13.2 ng/mL
24,Cc1ccc(C(C(=O)OCc2ccc(Cc3ccccc3)cc2)C(C)C)cc1 (stereo not drawn) [compound 226],13.5 ng/mL
25,Cc1ccc(C(C(=O)OC(C#N)c2cccc(Oc3ccccc3)c2)C(C)C)cc1 (stereo not drawn) [compound 227],1.9 ng/mL
26,CC(C)C(C(=O)OC(C#N)c1cccc(Oc2ccccc2)c1)c1ccc(Cl)cc1 (stereo not drawn) [compound 231],1.4 ng/mL
27,CSc1ccc(C(C(=O)OCc2cccc(Oc3ccccc3)c2)C(C)C)cc1 (stereo not drawn) [compound 298],9.7 ng/mL

# System: oriental house flies
# Assay: Potentiation of insecticidal activity by addition of piperonyl butoxide, topical application (Experimental Example 6)
# Type: in vivo
# Conditions: piperonyl butoxide 5 times active ingredient; acetone solution on thoracic dorsal plate
# Procedure: To each of the compounds (22), (51), (62), (63), (82), (86), (125), (150), (160), (176), (177), (178), (184), (185), (191), (195), (200), (201), (204), (208), (210), (212) and (226) was added piperonyl butoxide in an amount of 5 times that of the active ingredient, respectively to prepare an acetone solution having a given concentration. Each of the thus prepared acetone solutions was applied onto a thoracic dosal plate of oriental house flies using a microshringe to observe a synergestic effect on insecticidal activity by piperonyl butoxide.
row,SMILES,Potentiation magnification of insecticidal activity by the addition of piperonyl butoxide
1,"COc1ccc(C(C(=O)OCc2ccc(Cc3ccccc3)s2)C(C)C)cc1 (stereo not drawn) [compound 86, 5'-Benzyl-2'-thenylmethyl-α-isopropyl-4-methoxyphenylacetate]",4.5
2,C#CCc1ccc(C(C#C)OC(=O)C(c2ccc(C)cc2)C(C)C)o1 (stereo not drawn) [compound 160],7.2
3,CCC(C(=O)OCc1cccc(Oc2ccccc2)c1)c1ccc(Cl)cc1 (stereo not drawn) [compound 177],5.8
4,CCC(C(=O)OCc1cccc(Oc2ccccc2)c1)c1ccc(Br)cc1 (stereo not drawn) [compound 178],5.4
5,CCC(C(=O)OC1C=C(Cc2ccccc2)C(=O)C1)c1ccc(F)cc1 (stereo not drawn) [compound 191],4.3
6,CC(C)C(C(=O)OCc1coc(Cc2ccccc2)c1)c1cccc(Cl)c1 (stereo not drawn) [compound 204],4.7
7,CC(C)C(C(=O)OCc1cccc(Oc2ccccc2)c1)c1ccc(F)cc1 (stereo not drawn) [compound 210],4.8
8,CC(C)C(C(=O)OCc1coc(Cc2ccccc2)c1)c1ccc(Br)cc1 (stereo not drawn) [compound 212],5.0
9,Cc1ccc(C(C(=O)OCc2ccc(Cc3ccccc3)cc2)C(C)C)cc1 (stereo not drawn) [compound 226],4.5
